According to ChEMBL document CHEMBL1133326, “Alpha-ketoamides, alpha-ketoesters and alpha-diketones as HCV NS3 protease inhibitors” (Bioorg Med Chem Lett, 2000):
*1 amine or outer side, *2 acyl side, *3 side chain or, on linkers, in order; H or OH if unused. Where a SMILES comes first, the peptide text is derived from it. [ ]: non-standard residue; d: D form. The star is where a group is joined. Abu(ψCOCO) = CC[C@H](N[*:1])C(=O)C(=O)[*:2]; Boc = CC(C)(C)OC(=O)*; OtBu = CC(C)(C)O*; NHAllyl = C=CCN*

What follows are compounds tested against NS3 (Hepatitis C virus, UniProt A3EZJ3) (assay: Inhibition against hepatitis C virus protease NS3 activity).
Chain of NS3 (A3EZJ3 whole entry): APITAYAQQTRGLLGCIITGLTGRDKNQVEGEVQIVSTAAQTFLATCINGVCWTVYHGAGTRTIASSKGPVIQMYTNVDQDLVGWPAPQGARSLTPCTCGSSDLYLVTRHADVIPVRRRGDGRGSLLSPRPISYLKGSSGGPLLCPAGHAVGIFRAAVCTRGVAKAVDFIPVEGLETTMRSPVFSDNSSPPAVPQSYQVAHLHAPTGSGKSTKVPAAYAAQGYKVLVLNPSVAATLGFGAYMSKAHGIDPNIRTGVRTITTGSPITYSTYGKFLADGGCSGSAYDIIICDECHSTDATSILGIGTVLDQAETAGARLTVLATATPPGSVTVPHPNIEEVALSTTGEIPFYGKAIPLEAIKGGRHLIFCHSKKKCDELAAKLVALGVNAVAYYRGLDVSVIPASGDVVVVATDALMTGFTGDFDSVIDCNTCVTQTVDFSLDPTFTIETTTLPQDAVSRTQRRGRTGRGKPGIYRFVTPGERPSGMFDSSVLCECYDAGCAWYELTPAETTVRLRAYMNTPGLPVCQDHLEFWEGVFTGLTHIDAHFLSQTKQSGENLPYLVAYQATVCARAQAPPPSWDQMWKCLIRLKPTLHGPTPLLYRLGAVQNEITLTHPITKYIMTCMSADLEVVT
Set-up: species or system Hepacivirus hominis

Compound	IC50 [nM]
C=CCC(NC(=O)[C@H]1CCCN1C(=O)[C@@H](NC(=O)[C@@H](NC(=O)[C@H](CCC(=O)O)NC(=O)[C@@H](N)CC(=O)O)C(C)C)C(C)C)C(=O)C(=O)CC(C)C (stereo partly specified)	4800
C=CCC(NC(=O)[C@H]1CCCN1C(=O)[C@@H](NC(=O)[C@@H](NC(=O)[C@H](CCC(=O)O)NC(=O)[C@@H](N)CC(=O)O)C(C)C)C(C)C)C(=O)C(=O)NCC (stereo partly specified)	350
C=CCC(NC(=O)[C@H]1CCCN1C(=O)[C@@H](NC(=O)[C@@H](NC(=O)[C@H](CCC(=O)O)NC(=O)[C@@H](N)CC(=O)O)C(C)C)C(C)C)C(=O)C(=O)OC (stereo partly specified)	4340
C=CCC(NC(=O)[C@H]1CCCN1C(=O)[C@@H](NC(=O)[C@@H](NC(=O)[C@H](CCC(=O)O)NC(=O)[C@@H](N)CC(=O)O)C(C)C)C(C)C)C(=O)C(=O)C1CC=CCC1 (stereo partly specified)	4230
C=CCNC(=O)C(=O)C(CC=C)NC(=O)[C@H]1CCCN1C(=O)[C@@H](NC(=O)[C@@H](NC(=O)[C@H](CCC(=O)OC(C)(C)C)NC(=O)[C@H](CC(=O)OC(C)(C)C)NC(=O)OC(C)(C)C)C(C)C)C(C)C (stereo partly specified)	570
C=CCNC(=O)C(=O)C(CC=C)NC(=O)[C@H]1CCCN1C(=O)[C@@H](NC(=O)[C@@H](NC(=O)[C@H](CCC(=O)O)NC(=O)[C@@H](N)CC(=O)O)C(C)C)C(C)C (stereo partly specified)	340
Ac-DEVVPC-OH	2500

Other lines, results leading:

IC50 [nM]	Compound
> 30000	C=CCC(NC(=O)[C@H]1CCCN1C(=O)[C@@H](NC(=O)[C@@H](NC(=O)[C@H](CCC(=O)OC(C)(C)C)NC(=O)[C@H](CC(=O)OC(C)(C)C)NC(=O)OC(C)(C)C)C(C)C)C(C)C)C(=O)C(=O)OC (stereo partly specified)
> 30000	C=CCC(NC(=O)[C@H]1CCCN1C(=O)[C@@H](NC(=O)[C@@H](NC(=O)[C@H](CCC(=O)OC(C)(C)C)NC(=O)[C@H](CC(=O)OC(C)(C)C)NC(=O)OC(C)(C)C)C(C)C)C(C)C)C(=O)C(=O)CC(C)C (stereo partly specified)
840	C=CCNC(=O)C(=O)[C@H](CC)NC(=O)[C@@H]1CCCN1C(=O)[C@@H](NC(=O)[C@@H](NC(=O)[C@H](CCC(=O)OC(C)(C)C)NC(=O)[C@H](CC(=O)OC(C)(C)C)NC(=O)OC(C)(C)C)C(C)C)C(C)C (Boc-D(OtBu)E(OtBu)VVP[Abu(ψCOCO)]-NHAllyl)
420	C=CCNC(=O)C(=O)[C@H](CC)NC(=O)[C@@H]1CCCN1C(=O)[C@@H](NC(=O)[C@@H](NC(=O)[C@H](CCC(=O)O)NC(=O)[C@@H](N)CC(=O)O)C(C)C)C(C)C (H-DEVVP[Abu(ψCOCO)]-NHAllyl)
